We go through four molecules from patent US20180235914A1, “PR[…] PHA[…] OF […] A & B AGONISTS AGAINST NEURODEGENERATIVE AND NEURODEVELOPMENTAL DISEASES” (priority 2017, published 2018).

Series [1] deals with PTZ induced behavioral effects in mice. The experiment in a line: Antagonism of Pentylenetetrazole (PTZ) induced behavioral effects in mice. The settings on record: compounds 50 to 200 mg/kg (ip), PTZ 10 to 70 mg/kg (ip). Format: in vivo. How it is done:
In good agreement with the above pharmacological properties, GS, GP, GL and PG, at doses of 50 to 200 mg/kg, intraperitoneal (ip), in mice antagonized all the behavioral effects (in mice) corresponding to the symptoms, in humans, announcing the development of the neurodegenerative and neurodevelopmental diseases, i.e., anxiety, fear, social disconnection, agressivity, compulsive reactions, hypermotility, stereotypic activity, pain, seizures and lethargy, appearing at various degrees according to the amplitude of the Glutamate/GABA imbalance and to the brain regions (Basal Ganglia, Hippocampus, Cortex) affected by the above imbalance. Indeed, all the above behavioral effects (obtained, in mice, by administration of the GABAergic antagonist Pentylenetetrazole (PTZ) at 10 to 70 mg/kg, (ip): with 10 to 40 mg/kg (ip) giving fear, anxiety, social disconnection, and agressivity, hypermotility and stereotypic activity—the latter being better expressed by previous (reserpine induced) hypersensibilisation of the brain DA receptors—and seizures (obtained at 50 to 70 mg/kg (ip) of PTZ), were antagonized by GS, GP, GL, and PG at 50 to 200 mg/kg (ip).

Another series deals with Rats. Description: Animal models in Rats (haloperidol or reserpine catalepsy, reserpine palpebral ptosis, apomorphine and haloperidol stereotypies). Format: in vivo. The settings on record: inferred from catalepsy, ptosis and stereotypy models.
The next series deals with GABA receptors. Description: Affinity for the GABA receptors. Format: binding.
A further series can be described thus: Lipophilicity. In kind it is physicochemical. The settings on record: more specifically for GS, GP and GL.

With `CCCCC/C=C\C/C=C\CCCCCCCC(=O)NCCCC(=O)O` [GL, GABAlinoleamide], in series [1], the “behavioral effects obtained by PTZ (fear, anxiety, social disconnection, agressivity, hypermotility, stereotypic activity, seizures)” value (from here on “behavioral effects obtained by PTZ”) was “antagonized”. For the same molecule, in the series with Rats, the “preferential brain region of action” value is given as “preferentially acting in the striatum”. Also, the “affinities for the GABA receptors” value in the series on GABA receptors was “low affinities”. Also, the lipophilicities entry in “Lipophilicity” is on record as “high lipophilicities”.

Turning to `CCCCCCCCCCCCCCCC(=O)NCCCC(=O)O` [GP, GABApalmitamide], the “behavioral effects obtained by PTZ” value in series [1] is “antagonized”. In the series with Rats, the “preferential brain region of action” value is recorded as “preferentially acting in the striatum”. For the same molecule, the “affinities for the GABA receptors” value in the series on GABA receptors is recorded as “low affinities”. The lipophilicities result in the series “Lipophilicity” was “high lipophilicities”.

On to `CCCCCCCCCCCCCCCCCC(=O)NCCCC(=O)O` [GS, GABAstearamide], for which, in series [1], the “behavioral effects obtained by PTZ” value is recorded as “antagonized”. For the same molecule, the “preferential brain region of action” value in the series with Rats was “preferentially acting in substantia nigra”. Further, the “affinities for the GABA receptors” value in the series with GABA receptors is listed as “low affinities”. Besides, the lipophilicities entry in the series “Lipophilicity” is “high lipophilicities”.

Take `NC(=O)CCC/N=C(\c1ccc(Cl)cc1)c1cc(F)ccc1O` [PG, reference compound]: the “behavioral effects obtained by PTZ” value in series [1] was “antagonized”. The “preferential brain region of action” value with Rats is recorded as “preferentially acting in substantia nigra”. Besides, the “affinities for the GABA receptors” value in the series on GABA receptors is on record as “low affinities”. Also, the lipophilicities result in the series “Lipophilicity” is on record as “high lipophilicities”.
